Legend:
[1] = tested on: immortalized human glioblastoma cell cultures; settings: cited from earlier work
[2] = cited from earlier work
[3] = tested on: primary GBM cell cultures; experiment: Cell viability measurements (ddTUNEL, Dead Green, Hoechst staining) in primary GBM cultures; settings: 24 h; PEG-HCCs 2.6 nM, GFAPAB 3.9 nM, SN-38 2 μM
Method: Total, viable, and dead glioma cell numbers in confluent primary GBM cell cultures were measured using ddTUNEL (a quantitative assay for 3′ OH DNA ends), Dead Green, and Hoechst stains. Cells were treated with GFAPAB/SN-38/PEG-HCCs or saline for 24 h.
Primary human glioblastoma or astrocytoma cells were prepared from tumors within 10 min of their excision. The tumors were broken up using a pipette and then grown in DMEM, 20% FBS, GlutaMax-I, sodium pyruvate and Pen/Strep, for 2 weeks. After this time, and in all presented data, the same media was used, except that sodium pyruvate was omitted. […] GBM and NHA were grown to confluency in the appropriate media on Costar 96-well growth plates (Corning, N.Y.C, NY, USA). […] Cells were grown for 24 h in the presence or absence of all effectors, in a total volume of 250 μL.
The biotinylated ddUTP and biotinylated blunt ended oligonucleotide probe was visualized using Texas Red labeled avidin. […]
Cells were counted at 4× magnification using a Nikon Eclipse TE2000-E fluorescent microscope equipped with a CoolSnap ES digital camera system (Roper Scientific) containing an CCD-1300-Y/HS 1392×1040 imaging array cooled by a Peltier device. Images were recorded using Nikon NIS-Elements software as JEP2000 files.

SMILES | LD50 range reported by others [1] | Log P [2] | toxicity towards GBM cells (average living cells from ddTUNEL, Dead Green, Hoechst) [3]
CCc1c2c(nc3ccc(O)cc13)-c1cc3c(c(=O)n1C2)COC(=O)[C@]3(O)CC [SN-38] | 5 to 10 µM | 1.87 | not toxic
CC[C@]1(O)C[C@@H]2CN(CCc3c([nH]c4ccccc34)[C@@](C(=O)OC)(c3cc4c(cc3OC)N(C)[C@H]3[C@@](O)(C(=O)OC)[C@H](OC(C)=O)[C@]5(CC)C=CCN6CC[C@]43[C@@H]65)C2)C1 [Vin, Vinblastine] |  | 4.8 | 

— patent US20140154269A1, “TARGETED NANOVECTORS AND THEIR USE FOR TREATMENT OF BRAIN TUMORS” (The Methodist Hospital Research Institute, priority 2011, published 2014)
